Data set [1] in a line: Cumulative release study of CPF from NFC depots with solvents. It is filed as physicochemical. How it is done:
Cumulative release study aiming to increase the release rate of CPF and receive close to 100% cumulative result for NFC-formulations within 7 days. Following detailed tasks were performed: • Two solvents, DMSO (Dimethyl sulfoxide) and NMP (N-methyl-2-pyrrolidone), in addition to H2O were used to enhance release of CPF • 6% anionic and 1.5% native NFC were studied • Study included formulation and short in vitro dissolution studies for NFC-API depots to follow cumulative release
Cumulative release study aiming to increase cumulative result for NFC-formulations was performed with CPF, as it had clearly lower cumulative release results in previous experiments compared to MLX. 6% anionic and 1.5% native NFC were studied. Two solvents, DMSO (dimethyl sulfoxide) and NMP (N-methyl-2-pyrrolidone), in addition to H2O were used to enhance the release of CPF. The study included formulation and short in vitro dissolution studies for NFC-API depots to follow cumulative release (FIG. 7). Depots contained 50% of solvent and 50% of NFC.
However, the increase was most apparent within the first hours and first day of study, which after the release reverted to the level of pure NFC formulations.

For data set [2] the following is noted: water at 25° C.; cited from earlier work.

Converted amounts (≈) assume the structure as drawn.

Turning to `CC(C(=O)O)c1ccc2c(c1)[nH]c1ccc(Cl)cc12` (stereo not drawn) [Carprofen], the “effect on release of CPF” value in data set [1] (50% DMSO in NFC depot) and in data set [1] (50% NMP in NFC depot) was “increased the release” in each case.
For `Cc1cnc(NC(=O)C2=C(O)c3ccccc3S(=O)(=O)N2C)s1` [Meloxicam], the solubility in water in data set [2] is 7.15 µg/mL (≈ 20.3 µM).

These data come from patent publication US11744798B2, “Injectable pharmaceutical formulation” (UPM-Kymmene Corporation, priority 2019, dated 2023).
